EC50 data for 26 molecules are collected here from patent US12037339B2, “Substituted imidazoles as GLP-1 receptor agonists” (Eccogene Inc., priority 2020, dated 2024).

The structures appear in SMILES notation. pEC50: −log10 of the molar value. A value given as a limit tells only on which side of the number the result lay.

What is called pEC50 is the EC50 on a negative log10 scale, so that one unit is a factor of ten. A high value points to a small EC50.

For the test, the target named is (Homo sapiens, UniProt P43220). Kind of test: h-GLP-1 activity assay (cAMP HTRF, HEK293 cells with stable expression of human GLP-1). In kind it is cell-based. To be noted: relative EC50, 10 nM human GLP-1 set as 100% response, 30 min at 37° C. The protocol:
Human GLP-1 agonizing activity was detected in HEK293 cells with stable expression of human GLP-1 by Cisbio cAMP Gs dynamic kit (Catalog #62AM4PEC) according to manufacturer's protocol. Briefly, cells were collected and resuspended in assay buffer containing 0.1% BSA and 0.5 mM of IBMX at concentration to 2.5×10^5 cells/mL. Two μL 5× compound solution and 8 μL cell suspension were added to each well of low-volume 384 white assay plate. After 30 min incubation at 37° C., 5 μL cAMP-d2 working solution and 5 μL anti-cAMP antibody-cryptate were added to each well, and incubate at room temperature for 1 hr. Series dilution of cAMP was used as standard. Human GLP-1 (7-37) was used as positive control and 10 nM human GLP-1 was set as 100% response. HTRF signals were read at 665 and 615 nm with EnVision plate reader and calculated cAMP concentration by interpolation to the standard curve. The EC50 value of the tested compounds was calculated by fitting the dose response curve using a 4-parameter non-linear regression routine and relative EC50 was presented in Table 29.
(In general: TR-FRET usually uses a lanthanide donor and a delayed reading to cut background.)

(Homo sapiens, UniProt P43220), sequence (P43220 24-463): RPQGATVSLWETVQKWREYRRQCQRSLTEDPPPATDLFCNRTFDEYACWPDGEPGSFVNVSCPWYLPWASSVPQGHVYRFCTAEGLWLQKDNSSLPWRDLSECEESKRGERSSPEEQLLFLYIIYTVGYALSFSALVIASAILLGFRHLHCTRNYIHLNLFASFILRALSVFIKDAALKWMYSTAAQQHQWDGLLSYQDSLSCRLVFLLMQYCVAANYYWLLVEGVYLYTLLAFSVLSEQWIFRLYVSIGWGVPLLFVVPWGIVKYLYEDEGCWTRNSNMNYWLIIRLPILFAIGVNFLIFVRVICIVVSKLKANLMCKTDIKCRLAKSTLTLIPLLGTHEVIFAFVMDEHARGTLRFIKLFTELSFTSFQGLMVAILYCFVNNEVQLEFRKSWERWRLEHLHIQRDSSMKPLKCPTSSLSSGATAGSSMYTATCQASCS

With `C[C@H]1c2c(nn(-c3ccc(F)c(C4CC4)c3)c2-n2ccn(-c3ccc4c(cnn4C)c3F)c2=O)CCN1C(=O)c1nn2cc(C3CCOC(C)(C)C3)cnc2c1C1(c2noc(=O)[nH]2)CC1` (mixture of isomers) [Compound 103, 3-(1-(2-((S)-2-(3-cyclopropyl-4-fluorophenyl)-3-(3-(4-fluoro-1-methyl-1H-indazol-5-yl)-2-oxo-2,3-dihydro-1H-imidazol-1-yl)-4-methyl-4,5,6,7-tetrahydro-2H-pyrazolo[4,3-c]pyridine-5-carbonyl)-6-(2,2-dimethyltetrahydro-2H-pyran-4-yl)pyrazolo[1,5-a]pyrimidin-3-yl)cyclopropyl)-1,2,4-oxadiazol-5(4H)-one], the negative-log EC50 (pEC50) was over 7.70.

Molecule `C[C@H](c1ccc(F)cc1)n1nc2c(c1-n1ccn(-c3ccc4c(cnn4C)c3F)c1=O)[C@H](C)N(C(=O)c1cc3cc([C@@H]4CCOC(C)(C)C4)ccc3n1C1(c3noc(=O)[nH]3)CC1)CC2` (single isomer, unassigned) [Compound 38] had a negative-log EC50 (pEC50) of over 7.70. With `C[C@H]1c2c(nn([C@@H](C)c3ccc(F)cc3)c2-n2ccn(-c3ccc4c(cnn4C)c3F)c2=O)CCN1C(=O)c1cc2cc([C@H]3CCOC(C)(C)C3)ccc2n1C1(c2noc(=O)[nH]2)CC1` (single isomer, unassigned) [Compound 39] the figure was under 7.00; with `C[C@H]1c2c(nn(-c3ccc(F)cc3)c2-n2ccn(-c3ccc4c(cnn4C)c3F)c2=O)CCN1C(=O)c1cn2cc([C@@H]3CCOC(C)(C)C3)ccc2c1C1(c2noc(=O)[nH]2)CC1` (single isomer, unassigned) [Compound 11], over 7.70. With `C[C@H]1c2c(nn(-c3ccc(F)c(C4CC4)c3)c2-n2ccn(-c3ccc4c(cnn4C)c3F)c2=O)CCN1C(=O)c1nc2cc([C@@H]3CCOC(C)(C)C3)ccn2c1C1(c2noc(=O)[nH]2)CC1` (single isomer, unassigned) [Compound 98] the figure was 7.00 to 7.70; with `Cn1ncc2c(F)c(-n3ccn(-c4c(-c5ccc(F)cc5)nn5c4CN(C(=O)c4cc6cc(C7CCOCC7)ccc6n4-c4ccccc4C(=O)O)CC5)c3=O)ccc21` [Compound 55, 2-(2-(3-(3-(4-fluoro-1-methyl-1H-indazol-5-yl)-2-oxo-2,3-dihydro-1H-imidazol-1-yl)-2-(4-fluorophenyl)-4,5,6,7-tetrahydropyrazolo[1,5-a]pyrazine-5-carbonyl)-5-(tetrahydro-2H-pyran-4-yl)-1H-indol-1-yl)benzoic acid], under 7.00; with `Cc1cc(-c2nn3c(c2-n2ccn(-c4ccc5c(cnn5C)c4F)c2=O)[C@H](C)N(C(=O)c2cc4cc([C@@H]5CCOC(C)(C)C5)ccc4n2C2(c4noc(=O)[nH]4)CC2)CC3)cc(C)c1F` (single isomer, unassigned) [Compound 25], under 7.00. With `Cc1cc(-n2nc3c(c2-n2ccn(-c4ccc5c(cnn5C)c4F)c2=O)[C@H](C)N(C(=O)c2cn4cc([C@@H]5CCOC6(CC6)C5)ccc4c2C2(c4noc(=O)[nH]4)CC2)CC3)cc(C)c1F` (single isomer, unassigned) [Compound 87] the figure was over 7.70; with `Cc1cc(-n2nc3c(c2-n2ccn(-c4ccc5c(cnn5C)c4F)c2=O)[C@H](C)N(C(=O)c2cn4cc(N5CCOC(C)(C)C5)ccc4c2C2(c4noc(=O)[nH]4)CC2)CC3)cc(C)c1F` [Compound 1, (S)-3-(1-(6-(2,2-dimethylmorpholino)-2-(3-(3-(4-fluoro-1-methyl-1H-indazol-5-yl)-2-oxo-2,3-dihydro-1H-imidazol-1-yl)-2-(4-fluoro-3,5-dimethylphenyl)-4-methyl-4,5,6,7-tetrahydro-2H-pyrazolo[4,3-c]pyridine-5-carbonyl)indolizin-1-yl)cyclopropyl)-1,2,4-oxadiazol-5(4H)-one], over 7.70; with `C[C@H]1c2c(nn(-c3ccc(F)c(C4CC4)c3)c2-n2ccn(-c3ccc4c(cnn4C)c3F)c2=O)CCN1C(=O)c1cc2c(F)c([C@H]3CCOC(C)(C)C3)ccn2c1C1(c2noc(=O)[nH]2)CC1` (single isomer, unassigned) [Compound 95], under 7.00. Molecule `C[C@H]1c2c(nn(-c3ccc(F)c(C(F)(F)F)c3)c2-n2ccn(-c3ccc4c(cnn4C)c3F)c2=O)CCN1C(=O)c1cc2cc([C@@H]3CCOC(C)(C)C3)ccn2c1C1(c2noc(=O)[nH]2)CC1` (single isomer, unassigned) [Compound 74] showed a pEC50 of over 7.70. With `Cc1cc(-c2nn3c(c2-n2ccn(-c4ccc5c(cnn5C)c4F)c2=O)[C@@H](C)N(C(=O)c2cc4cc([C@@H]5CCOC(C)(C)C5)ccc4n2C2(c4noc(=O)[nH]4)CC2)CC3)ccc1F` (single isomer, unassigned) [Compound 27] the figure was under 7.00; with `Cc1cc(-n2nc3c(c2-n2ccn(-c4ccc5c(cnn5C)c4F)c2=O)CN(C(=O)c2cc4cc(C5CCOC(C)(C)C5)ccc4n2Cc2nnc(O)s2)CC3)cc(C)c1F` (racemic) [Compound 35, 1-(5-(5-(2,2-dimethyltetrahydro-2H-pyran-4-yl)-1-((5-hydroxy-1,3,4-thiadiazol-2-yl)methyl)-1H-indole-2-carbonyl)-2-(4-fluoro-3,5-dimethylphenyl)-4,5,6,7-tetrahydro-2H-pyrazolo[4,3-c]pyridin-3-yl)-3-(4-fluoro-1-methyl-1H-indazol-5-yl)-1,3-dihydro-2H-imidazol-2-one], under 7.00. With `C[C@H]1c2c(nn(-c3ccc(F)c(C4CC4)c3)c2-n2ccn(-c3ccc4c(cnn4C)c3F)c2=O)CCN1C(=O)c1cc2c(F)c([C@@H]3CCOC(C)(C)C3)ccn2c1C1(c2noc(=O)[nH]2)CC1` (single isomer, unassigned) [Compound 96] the figure was over 7.70; with `C[C@H]1c2c(nn(-c3ccc(F)c(C4CC4)c3)c2-n2ccn(-c3ccc4c(cnn4C)c3F)c2=O)CCN1C(=O)c1cn2nc([C@H]3CCOC(C)(C)C3)ccc2c1C1(c2noc(=O)[nH]2)CC1` (single isomer, unassigned) [Compound 89], 7.00 to 7.70. With `C[C@H]1c2c(nn(-c3ccc(C(F)(F)F)cc3)c2-n2ccn(-c3ccc4c(cnn4C)c3F)c2=O)CCN1C(=O)c1cn2cc([C@@H]3CCOC(C)(C)C3)ccc2c1C1(c2noc(=O)[nH]2)CC1` (single isomer, unassigned) [Compound 8] the figure was over 7.70; with `C[C@@H]1c2c(-n3ccn(-c4ccc5c(cnn5C)c4F)c3=O)c(-c3ccc(F)cc3)nn2CCN1C(=O)c1cc2cc([C@@H]3CCOC(C)(C)C3)ccc2n1C1(c2noc(=O)[nH]2)CC1` (single isomer, unassigned) [Compound 34], under 7.00; with `Cc1cc(-n2nc3c(c2-n2ccn(-c4ccc5c(cnn5C)c4F)c2=O)[C@H](C)N(C(=O)c2cn4cc([C@H]5CCOC(C)(C)C5)ccc4c2[C@]2(c4noc(=O)[nH]4)C[C@@H]2C)CC3)cc(C)c1F` (single isomer, unassigned) [Compound 5], over 7.70. As for `Cc1cc(-n2nc3c(c2-n2ccn(-c4ccn5c(C)ncc5c4)c2=O)[C@H](C)N(C(=O)c2cn4cc([C@H]5CCOC(C)(C)C5)ccc4c2C2(c4noc(=O)[nH]4)CC2)CC3)cc(C)c1F` (single isomer, unassigned) [Compound 18], the pEC50 was over 7.70. With `C[C@H](c1ccc(F)cc1)n1nc2c(c1-n1ccn(-c3ccc4c(cnn4C)c3F)c1=O)[C@H](C)N(C(=O)c1cc3cc([C@H]4CCOC(C)(C)C4)ccc3n1C1(c3noc(=O)[nH]3)CC1)CC2` (single isomer, unassigned) [Compound 41] the figure was under 7.00; with `C[C@@H]1c2c(-n3ccn(-c4ccc5c(cnn5C)c4F)c3=O)c(-c3cc(Cl)c(F)c(Cl)c3)nn2CCN1C(=O)c1cc2cc([C@@H]3CCOC(C)(C)C3)ccc2n1C1(c2noc(=O)[nH]2)CC1` (single isomer, unassigned) [Compound 51], over 7.70; with `C[C@H]1c2c(-n3ccn(-c4ccc5c(cnn5C)c4F)c3=O)c(-c3ccc(F)c(C(F)(F)F)c3)nn2CCN1C(=O)c1cc2cc([C@@H]3CCOC(C)(C)C3)ccc2n1C1(c2noc(=O)[nH]2)CC1` (single isomer, unassigned) [Compound 65], over 7.70.

`C[C@H]1c2c(nn(-c3cc(F)c(F)c(F)c3)c2-n2ccn(-c3ccc4c(cnn4C)c3F)c2=O)CCN1C(=O)c1cn2cc([C@@H]3CCOC(C)(C)C3)ccc2c1C1(c2noc(=O)[nH]2)CC1` (single isomer, unassigned) [Compound 75]: the pEC50 was over 7.70.

Regarding `Cc1cc(-n2nc3c(c2-n2ccn(-c4ccc5c(cnn5C)c4F)c2=O)[C@H](C)N(C(=O)c2cc4cc([C@@H]5CCOC(C)(C)C5)ccc4n2Cc2cnc(O)s2)CC3)cc(C)c1F` (single isomer, unassigned) [Compound 46], the pEC50 is 7.00 to 7.70.

`C[C@@H]1c2c(-n3ccn(-c4ccc5c(cnn5C)c4F)c3=O)c(-c3ccc(F)c(Cl)c3)nn2CCN1C(=O)c1cc2cc([C@@H]3CCOC(C)(C)C3)ccc2n1C1(c2noc(=O)[nH]2)CC1` (single isomer, unassigned) [Compound 49] gave a pEC50 of over 7.70. With `Cc1cc(-n2nc3c(c2-n2ccn(-c4ccc5c(cnn5C)c4F)c2=O)[C@H](C)N(C(=O)c2cc4cc(C5CCOC(C)(C)C5)ccc4n2C2(c4nc(O)ns4)CC2)CC3)cc(C)c1F` (mixture of isomers) [Compound 48, 1-((4S)-5-(5-(2,2-dimethyltetrahydro-2H-pyran-4-yl)-1-(1-(3-hydroxy-1,2,4-thiadiazol-5-yl)cyclopropyl)-1H-indole-2-carbonyl)-2-(4-fluoro-3,5-dimethylphenyl)-4-methyl-4,5,6,7-tetrahydro-2H-pyrazolo[4,3-c]pyridin-3-yl)-3-(4-fluoro-1-methyl-1H-indazol-5-yl)-1,3-dihydro-2H-imidazol-2-one] the figure was over 7.70.
